{
  "source": "patent US6746990B2",
  "about": "“2-phenyl-substituted heterocyclic 1,3-ketoenols as herbicides and pesticides” (Bayer Aktiengesellschaft, priority 1995, dated 2004)",
  "type_in_all_cases": "in vivo",
  "key": {"Veronica": {"tested_on": "Veronica", "test": "Pre-emergence test, Veronica", "conditions": "application rate 250 g/ha, after three weeks", "method": "(§1) Pre-emergence Test Solvent: 3 parts by weight of acetone Emulsifier: 1 part by weight of alkylaryl polyglycol ether To produce a suitable preparation of active compound, 1 part by weight of active compound is mixed with the stated amount of solvent, the stated amount of emulsifier is added and the concentrate is diluted with water to the desired concentration. Seeds of the test plants are sown in normal soil and, after 24 hours, watered with the preparation of the active compound. It is expedient to keep constant the amount of water per unit area. The concentration of the active compound in the preparation is of no importance, only the amount of active compound applied per unit area being decisive. After three weeks, the degree of damage to the plants is rated in % damage in comparison to the development of the untreated control. The figures denote: 0%=no action (like untreated control) 100%=total destruction"}, "Echinochloa": {"tested_on": "Echinochloa", "test": "Pre-emergence test, Echinochloa", "conditions": "application rate 250 g/ha, after three weeks", "method": "as §1"}, "[1]": {"tested_on": "green rice leafhopper (Nephotettix cinticeps)", "test": "Nephotettix test", "conditions": "after 6 days; active compound concentration 0.1%; rice seedlings dipped", "method": "(§2) Solvent: 7 parts by weight of dimethylformamide\n(§3) Emulsifier: 1 part by weight of alkylaryl polyglycol ether\n(§4) To produce a suitable preparation of active compound, 1 part by weight of active compound is mixed with the stated amount of solvent and the stated amount of emulsifier, and the concentrate is diluted with water to the desired concentration.\nRice seedlings (Oryza sativa) are treated by being dipped into the preparation of active compound of the desired concentration and are infested with the green rice leafhopper (Nephotettix cinticeps) while the leaves are still moist.\nAfter the specified period of time, the destruction in % is determined. 100% means that all the leafhoppers have been killed; 0% means that none of the leafhoppers have been killed."}, "soya beans [2]": {"tested_on": "soya beans", "test": "Pre-emergence test, tolerance by soya beans", "conditions": "application rate 250 g/ha", "method": "as §1"}, "Chenopodium": {"tested_on": "Chenopodium", "test": "Pre-emergence test, Chenopodium", "conditions": "application rate 250 g/ha, after three weeks", "method": "as §1"}, "Digitaria": {"tested_on": "Digitaria", "test": "Pre-emergence test, Digitaria", "conditions": "application rate 250 g/ha, after three weeks", "method": "as §1"}, "[3]": {"tested_on": "greenhouse red spider mite (Tetranychus urticae)", "test": "Tetranychus test (OP-resistant)", "conditions": "after 13 days; active compound concentration 0.1%; infested bean shoots dipped", "method": "Tetranychus Test (OP-resistant)\nas §2, §3, §4\nBean shoots (Phaseolus vulgaris) which are severely infested with the greenhouse red spider mite (Tetranychus urticae) are dipped into a preparation of the active compound of the desired concentration.\nAfter the specified period of time, the destruction in % is determined. 100% means that all the spider mites have been killed; 0% means that none of the spider mites have been killed."}, "Alopecurus [4]": {"tested_on": "Alopecurus", "test": "Pre-emergence test, Alopecurus", "conditions": "application rate 250 g/ha, after three weeks", "method": "as §1"}, "Alopecurus [5]": {"tested_on": "Alopecurus", "test": "Post-emergence test, Alopecurus", "conditions": "application rate 125 g/ha, after three weeks", "method": "(§5) Post-emergence Test Solvent: 5 parts by weight of acetone Emulsifier: 1 part by weight of alkylaryl polyglycol ether To produce a suitable preparation of active compound, 1 part by weight of active compound is mixed with the stated amount of solvent, the stated amount of emulsifier is added and the concentrate is diluted with water to the desired concentration. Test plants which have a height of 5-15 cm are sprayed with the preparation of the active compound in such a way as to apply the particular amounts of active compound desired per unit area. The concentration of the spray liquor is so chosen that the particular amounts of active compound desired are applied in 2000 l of water/ha. After three weeks, the degree of damage to the plants is. rated in % damage in comparison to the development of the untreated control. The figures denote: 0%=no action (like untreated control) 100%=total destruction"}, "Setaria": {"tested_on": "Setaria", "test": "Post-emergence test, Setaria", "conditions": "application rate 125 g/ha, after three weeks", "method": "as §5"}, "soya beans [6]": {"tested_on": "soya beans", "test": "Post-emergence test, tolerance by soya beans", "conditions": "application rate 125 g/ha", "method": "as §5"}, "Avena fatua": {"tested_on": "Avena fatua", "test": "Post-emergence test, Avena fatua", "conditions": "application rate 125 g/ha, after three weeks", "method": "as §5"}, "maize": {"tested_on": "maize", "test": "Pre-emergence test, tolerance by maize", "conditions": "application rate 250 g/ha", "method": "as §1"}, "Abutilon": {"tested_on": "Abutilon", "test": "Pre-emergence test, Abutilon", "conditions": "application rate 250 g/ha, after three weeks", "method": "as §1"}, "Beta vulgaris": {"tested_on": "Beta vulgaris", "test": "Pre-emergence test, tolerance by Beta vulgaris", "conditions": "application rate 4000 g/ha", "method": "as §1"}, "[7]": {"tested_on": "Boophilis Microplus Resistant/SP-resistant Parkhurst Strain", "test": "Test with Boophilis Microplus resistant/SP-resistant Parkhurst strain", "conditions": "20 μg/animal injected into the abdomen; adult females", "method": "Test with Boophilis Microplus Resistant/SP-resistant Parkhurst Strain\nTest animals: adult females which have sucked themselves full\nSolvent: dimethyl sulphoxide\n20 mg of active substance are dissolved in 1 ml of dimethyl sulphoxide, and lesser concentrations are prepared by dilution with the same solvent.\nThe test is carried out in 5 replications. 1 μl of the solutions is injected into the abdomen, and the animals are transferred into dishes and kept in a controlled-environment cabinet. The activity is determined via the inhibition of oviposition. 100% means that no tick has deposited eggs."}, "Alopecurus myosuroides": {"tested_on": "Alopecurus myosuroides", "test": "Pre-emergence test, Alopecurus myosuroides", "conditions": "application rate 4000 g/ha, after three weeks", "method": "as §1"}},
  "data": [
    {"smiles": "Cc1cc(C)c(C2=C(O)C3(CCC(C)CC3)NC2=O)c(C#N)c1", "note": "(single isomer, unassigned) [Example I-1-a-4]", "values": [
      {"measurement": "damage to Veronica", "setting": "Veronica", "value": 100, "unit": "%"},
      {"measurement": "damage to Echinochloa", "setting": "Echinochloa", "value": 100, "unit": "%"},
      {"measurement": "destruction in %", "setting": "[1]", "value": 100, "unit": "%"},
      {"measurement": "tolerance by soya beans", "setting": "soya beans [2]", "value": "good tolerance"},
      {"measurement": "damage to Chenopodium", "setting": "Chenopodium", "value": 100, "unit": "%"},
      {"measurement": "damage to Digitaria", "setting": "Digitaria", "value": 100, "unit": "%"},
      {"measurement": "activity (destruction in %)", "setting": "[3]", "value": 100, "unit": "%"},
      {"measurement": "damage to Alopecurus", "setting": "Alopecurus [4]", "value": 100, "unit": "%"}
    ]},
    {"smiles": "CCc1cc(C#N)cc(C)c1C1=C(O)C2(CCC(C)CC2)NC1=O", "note": "(single isomer, unassigned) [Example I-1-a-5]", "values": [
      {"measurement": "damage to Alopecurus", "setting": "Alopecurus [5]", "value": "at least 80%"},
      {"measurement": "damage to Setaria", "setting": "Setaria", "value": "at least 80%"},
      {"measurement": "destruction in %", "setting": "[1]", "value": 100, "unit": "%"},
      {"measurement": "tolerance by soya beans", "setting": "soya beans [6]", "value": "good tolerance"},
      {"measurement": "activity (destruction in %)", "setting": "[3]", "value": 100, "unit": "%"},
      {"measurement": "damage to Avena fatua", "setting": "Avena fatua", "value": "at least 80%"}
    ]},
    {"smiles": "Cc1cc(C#N)cc(C)c1C1=C(O)C2(CCC(C)CC2)NC1=O", "note": "(single isomer, unassigned) [Example I-1-a-6]", "values": [
      {"measurement": "tolerance by maize", "setting": "maize", "value": "good tolerance"},
      {"measurement": "destruction in %", "setting": "[1]", "value": 100, "unit": "%"},
      {"measurement": "damage to Abutilon", "setting": "Abutilon", "value": 80, "unit": "%"},
      {"measurement": "activity (destruction in %)", "setting": "[3]", "value": 100, "unit": "%"}
    ]},
    {"smiles": "CC1CCC2(CC1)NC(=O)C(c1ccc(S(C)(=O)=O)cc1Cl)=C2O", "note": "(stereo not drawn) [Example I-1-a-1]", "values": [
      {"measurement": "destruction in %", "setting": "[1]", "value": 100, "unit": "%"},
      {"measurement": "tolerance by Beta vulgaris", "setting": "Beta vulgaris", "value": "good tolerance"},
      {"measurement": "activity (inhibition of oviposition)", "setting": "[7]", "value": 100, "unit": "%"},
      {"measurement": "damage to Alopecurus myosuroides", "setting": "Alopecurus myosuroides", "value": 80, "unit": "%"}
    ]},
    {"smiles": "CCOC(=O)OC1=C(c2ccc(S(C)(=O)=O)cc2Cl)C(=O)NC12CCC(C)CC2", "note": "(stereo not drawn) [Example I-1-c-1]", "values": [
      {"measurement": "tolerance by Beta vulgaris", "setting": "Beta vulgaris", "value": "good tolerance"},
      {"measurement": "damage to Alopecurus myosuroides", "setting": "Alopecurus myosuroides", "value": 80, "unit": "%"}
    ]}
  ]
}
